Measured values: the NIST ThermoML archive (doi:10.1016/j.fluid.2009.06.008)
± gives the expanded uncertainty stated by the source.

Experiment: mn = molality of the nth substance listed, in mol/kg
Conditions: 101 kPa, Liquid; for viscosity: Capillary tube (Ostwald / Ubbelohde) method; for mass density: Vibrating tube method

O=C[C@H](O)[C@@H](O)[C@H](O)[C@H](O)CO [D-glucose] + O
Conditions	mass density [kg/m3]	viscosity [mPa·s]
278.15 K, m1 = 0.2	1019.65 ± 0.074	1.694 ± 0.016
278.15 K, m1 = 0.4	1031.6 ± 0.078	1.873 ± 0.018
278.15 K, m1 = 0.6	1043.55 ± 0.082	2.074 ± 0.02
278.15 K, m1 = 0.8	1055.51 ± 0.087	2.3 ± 0.022
278.15 K, m1 = 1	1067.46 ± 0.092	2.536 ± 0.024
278.15 K, m1 = 1.2	1079.41 ± 0.098	2.802 ± 0.027
283.15 K, m1 = 0.2	1017.74 ± 0.074	1.451 ± 0.014
283.15 K, m1 = 0.4	1029.58 ± 0.077	1.599 ± 0.015
283.15 K, m1 = 0.6	1041.42 ± 0.081	1.766 ± 0.017
283.15 K, m1 = 0.8	1053.25 ± 0.086	1.953 ± 0.019
283.15 K, m1 = 1	1065.09 ± 0.091	2.147 ± 0.021
283.15 K, m1 = 1.2	1076.93 ± 0.097	2.374 ± 0.023
288.15 K, m1 = 0.2	1015.54 ± 0.073	1.258 ± 0.012
288.15 K, m1 = 0.4	1027.28 ± 0.076	1.383 ± 0.013
288.15 K, m1 = 0.6	1039.02 ± 0.08	1.524 ± 0.014
288.15 K, m1 = 0.8	1050.75 ± 0.085	1.682 ± 0.016
288.15 K, m1 = 1	1062.49 ± 0.09	1.849 ± 0.017
288.15 K, m1 = 1.2	1074.22 ± 0.096	2.029 ± 0.019
293.15 K, m1 = 0.2	1013.09 ± 0.072	1.104 ± 0.01
293.15 K, m1 = 0.4	1024.74 ± 0.075	1.21 ± 0.011
293.15 K, m1 = 0.6	1036.38 ± 0.079	1.329 ± 0.012
293.15 K, m1 = 0.8	1048.03 ± 0.084	1.46 ± 0.014
293.15 K, m1 = 1	1059.67 ± 0.089	1.619 ± 0.015
293.15 K, m1 = 1.2	1071.32 ± 0.095	1.754 ± 0.016
298.15 K, m1 = 0.2	1010.39 ± 0.077	0.9748 ± 0.0087
298.15 K, m1 = 0.4	1023.11 ± 0.078	1.066 ± 0.0096
298.15 K, m1 = 0.6	1035.26 ± 0.08	1.166 ± 0.011
298.15 K, m1 = 0.8	1046.85 ± 0.083	1.272 ± 0.012
298.15 K, m1 = 1	1057.94 ± 0.086	1.395 ± 0.013
298.15 K, m1 = 1.2	1068.55 ± 0.09	1.528 ± 0.014
303.15 K, m1 = 0.2	–	0.8685 ± 0.0077
303.15 K, m1 = 0.4	1018.93 ± 0.074	0.9469 ± 0.0084
303.15 K, m1 = 0.6	1030.42 ± 0.078	1.035 ± 0.0092
303.15 K, m1 = 0.8	1041.92 ± 0.083	1.132 ± 0.01
303.15 K, m1 = 1	1053.41 ± 0.087	1.236 ± 0.011
303.15 K, m1 = 1.2	1064.9 ± 0.093	1.343 ± 0.012
308.15 K, m1 = 0.2	1004.38 ± 0.07	0.7811 ± 0.007
308.15 K, m1 = 0.4	1015.81 ± 0.073	0.8496 ± 0.0075
308.15 K, m1 = 0.6	1027.24 ± 0.076	0.9264 ± 0.0083
308.15 K, m1 = 0.8	1038.67 ± 0.081	1.01 ± 0.0091
308.15 K, m1 = 1	1050.1 ± 0.086	1.096 ± 0.0099
308.15 K, m1 = 1.2	1061.53 ± 0.091	1.194 ± 0.011
